Experimental findings from US20250236616A1, “IMMUNOMODULATING AZALIDES” (Zoetis Services LLC, priority 2021, published 2025) are described below.

Common to all, as to assay type: cell-based
The subject of one assay is TNF-α. Kind of assay: Whole bovine blood assay, LPS-induced TNF-α. The following applies: fresh whole bovine blood, LPS stimulant; top drug concentration 250 μM. A digest of the protocol: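 Fresh heparinized bovine whole blood was preincubated with compound 4 h at 37 °C, then stimulated with LPS (final 1 μg/mL) for 18 h at 37 °C. Plasma TNF-α was quantified by MSD U-Plex chemiluminescent immunoassay, normalized to total protein (BCA), and IC50 taken for LPS-induced TNF-α inhibition.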

In the next assay the test system is IL-1β. Kind of assay: Whole bovine blood assay, LPS-induced IL-1β (inhibition / overstimulation). The settings on record: drug concentration giving overstimulation (OS) of LPS-induced IL-1β, top concentration 250 μM. A digest of the protocol:
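Fresh heparinized bovine whole blood was preincubated with compound at varying concentrations for 4 h at 37 °C, then stimulated with 1 μg/mL LPS for 18 h. Plasma IL-1β was measured by MSD chemiluminescent immunoassay and normalized to total protein. Values cover inhibition and concentration-dependent overstimulation.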

Another assay concerns IL-6. Description: Whole bovine blood assay, LPS-induced IL-6. The settings on record: fresh whole bovine blood, LPS stimulant; top drug concentration 250 μM.

Turning to `CCCNC[C@]1(O)[C@H](C)O[C@@H](O[C@H]2[C@H](C)[C@@H](O[C@@H]3O[C@H](C)C[C@H](N(C)S(=O)(=O)c4ncn(C)c4Cl)[C@H]3Oc3ccc(OC)cc3)[C@](C)(O)C[C@@H](C)CN[C@H](C)[C@@H](O)[C@](C)(O)[C@@H](CC)OC(=O)[C@@H]2C)C[C@@]1(C)OC` [Example B-111], the figures for the IC50 in the assay on TNF-α and in the assay on IL-6 were over 250 µM and 141 µM, respectively. In the assay with IL-1β, this molecule displayed a minimal effective concentration of 17 µM.
With `CCCNC[C@]1(O)[C@H](C)O[C@@H](O[C@H]2[C@H](C)[C@@H](O[C@@H]3O[C@H](C)C[C@H](N(C)S(=O)(=O)N(C)CC(F)(F)F)[C@H]3O)[C@](C)(O)C[C@@H](C)CN[C@H](C)[C@@H](O)[C@](C)(O)[C@@H](CC)OC(=O)[C@@H]2C)C[C@@]1(C)OC` [Example B-112], the values for the concentration for half-maximal inhibition (IC50) with TNF-α and in the assay with IL-6 were 39 µM and 45 µM, respectively. The molecule further had a minimal effective concentration with IL-1β of 40 µM.
Taken in the same sequence, the figures for `CC[C@H]1OC(=O)[C@H](C)[C@@H](O[C@H]2C[C@@](C)(OC)[C@](O)(CNc3ccc(OC)cc3)[C@H](C)O2)[C@H](C)[C@@H](O[C@@H]2O[C@H](C)C[C@H](N(C)S(N)(=O)=O)[C@H]2O)[C@](C)(O)C[C@@H](C)CN[C@H](C)[C@@H](O)[C@]1(C)O` [Example B-125] were 34 µM, 88 µM and 16 µM.
Consider `CCCNC[C@]1(O)[C@H](C)O[C@@H](O[C@H]2[C@H](C)[C@@H](O[C@@H]3O[C@H](C)C[C@H](N(C)S(=O)(=O)c4nccn4C)[C@H]3Oc3ccccn3)[C@](C)(O)C[C@@H](C)CN[C@H](C)[C@@H](O)[C@](C)(O)[C@@H](CC)OC(=O)[C@@H]2C)C[C@@]1(C)OC` [Example B-131], for which the half-maximal inhibitory concentration (IC50) turned out to be 28 µM in the assay with TNF-α and 17 µM in the assay on IL-6. In the assay on IL-1β, this molecule registered a minimal effective concentration of 6 µM.
Consider `CCCNC[C@]1(O)[C@H](C)O[C@@H](O[C@H]2[C@H](C)[C@@H](O[C@@H]3O[C@H](C)C[C@H](N(C)S(=O)(=O)c4nccn4C)[C@H]3Oc3cccc(CO)c3)[C@](C)(O)C[C@@H](C)CN[C@H](C)[C@@H](O)[C@](C)(O)[C@@H](CC)OC(=O)[C@@H]2C)C[C@@]1(C)OC` [Example B-134], for which the IC50 came to 17 µM in the assay on TNF-α and 83 µM in the assay with IL-6. The minimal effective concentration in the assay with IL-1β is on record as 40 µM.
As for `CCCNC[C@]1(O)[C@H](C)O[C@@H](O[C@H]2[C@H](C)[C@@H](O[C@@H]3O[C@H](C)C[C@H](N(C)S(=O)(=O)c4nccn4C)[C@H]3Oc3ccc(Cl)cc3)[C@](C)(O)C[C@@H](C)CN[C@H](C)[C@@H](O)[C@](C)(O)[C@@H](CC)OC(=O)[C@@H]2C)C[C@@]1(C)OC` [Example B-136], the values for the IC50 in the assay with TNF-α and in the assay on IL-6 were 8 µM and 9 µM, respectively. Further, the minimal effective concentration with IL-1β was determined as 6 µM.
The matching figures for `CCCNC[C@]1(O)[C@H](C)O[C@@H](O[C@H]2[C@H](C)[C@@H](O[C@@H]3O[C@H](C)C[C@H](N(C)S(=O)(=O)c4ccccc4)[C@H]3Oc3cccc([S+](C)[O-])c3)[C@](C)(O)C[C@@H](C)CN[C@H](C)[C@@H](O)[C@](C)(O)[C@@H](CC)OC(=O)[C@@H]2C)C[C@@]1(C)OC` (stereo partly drawn) [Example B-138]: 26 µM, 70 µM and 40 µM.
The matching figures for `CCCNC[C@]1(O)[C@H](C)O[C@@H](O[C@H]2[C@H](C)[C@@H](O[C@@H]3O[C@H](C)C[C@H](N(C)S(=O)(=O)c4nccn4C)[C@H]3Oc3cccc([S+](C)[O-])c3)[C@](C)(O)C[C@@H](C)CN[C@H](C)[C@@H](O)[C@](C)(O)[C@@H](CC)OC(=O)[C@@H]2C)C[C@@]1(C)OC` (stereo partly drawn) [Example B-139]: 40 µM, 73 µM and 40 µM.
The matching figures for `CCCNC[C@]1(O)[C@H](C)O[C@@H](O[C@H]2[C@H](C)[C@@H](O[C@@H]3O[C@H](C)C[C@H](N(Cc4ccccc4)S(=O)(=O)c4nccn4C)[C@H]3O)[C@](C)(O)C[C@@H](C)CN[C@H](C)[C@@H](O)[C@](C)(O)[C@@H](CC)OC(=O)[C@@H]2C)C[C@@]1(C)OC` [Example B-143]: 7 µM, 8 µM and 2 µM.
With `CCCNC[C@]1(O)[C@H](C)O[C@@H](O[C@H]2[C@H](C)[C@@H](O[C@@H]3O[C@H](C)C[C@H](N(Cc4ccccc4)S(=O)(=O)c4ccc(OC)cc4)[C@H]3O)[C@](C)(O)C[C@@H](C)CN[C@H](C)[C@@H](O)[C@](C)(O)[C@@H](CC)OC(=O)[C@@H]2C)C[C@@]1(C)OC` [Example B-144], the results for the concentration for half-maximal inhibition (IC50) in the assay with TNF-α and in the assay on IL-6 were 9 µM and 10 µM, respectively. In the assay on IL-1β, this molecule gave a minimal effective concentration of 2 µM.
The matching figures for `CCCNC[C@]1(O)[C@H](C)O[C@@H](O[C@H]2[C@H](C)[C@@H](O[C@@H]3O[C@H](C)C[C@H](N(Cc4ccccc4)S(=O)(=O)c4ccccc4)[C@H]3O)[C@](C)(O)C[C@@H](C)CN[C@H](C)[C@@H](O)[C@](C)(O)[C@@H](CC)OC(=O)[C@@H]2C)C[C@@]1(C)OC` [Example B-145]: 8 µM, 6 µM and 2 µM.
As for `CCCNC[C@]1(O)[C@H](C)O[C@@H](O[C@H]2[C@H](C)[C@@H](O[C@@H]3O[C@H](C)C[C@H](N(Cc4ccc(OC)cc4)S(=O)(=O)c4nccn4C)[C@H]3O)[C@](C)(O)C[C@@H](C)CN[C@H](C)[C@@H](O)[C@](C)(O)[C@@H](CC)OC(=O)[C@@H]2C)C[C@@]1(C)OC` [Example B-146], the IC50 in the assay on TNF-α and in the assay with IL-6 was 10 µM in each case. In the assay with IL-1β, the minimal effective concentration worked out at 2 µM.
`CCCNC[C@]1(O)[C@H](C)O[C@@H](O[C@H]2[C@H](C)[C@@H](O[C@@H]3O[C@H](C)C[C@H](N(Cc4ccc(OC)cc4)S(=O)(=O)c4ccc(OC)cc4)[C@H]3O)[C@](C)(O)C[C@@H](C)CN[C@H](C)[C@@H](O)[C@](C)(O)[C@@H](CC)OC(=O)[C@@H]2C)C[C@@]1(C)OC` [Example B-147]: the IC50 with TNF-α worked out at 7 µM; in the assay on IL-6, 5 µM. The molecule further had a minimal effective concentration with IL-1β of 1 µM.
As for `CC[C@H]1OC(=O)[C@H](C)[C@@H](O[C@H]2C[C@@](C)(OC)[C@](O)(CN3CCCC3)[C@H](C)O2)[C@H](C)[C@@H](O[C@@H]2O[C@H](C)C[C@H](N(C)S(=O)(=O)c3ccc(Cl)cc3)[C@H]2O)[C@](C)(O)C[C@@H](C)CN[C@H](C)[C@@H](O)[C@]1(C)O` [Example C-3], the IC50 in the assay on TNF-α was found to be 5 µM; with IL-6, 9 µM. Also, the minimal effective concentration in the assay with IL-1β came to 16 µM.
Taken in the same sequence, the figures for `CC[C@H]1OC(=O)[C@H](C)[C@@H](O[C@H]2C[C@@](C)(OC)[C@](O)(CN3CCSCC3)[C@H](C)O2)[C@H](C)[C@@H](O[C@@H]2O[C@H](C)C[C@H](N(C)S(=O)(=O)c3ccc(Cl)cc3)[C@H]2O)[C@](C)(O)C[C@@H](C)CN[C@H](C)[C@@H](O)[C@]1(C)O` [Example C-6] were 6 µM, 32 µM and 16 µM.
Taken in the same sequence, the figures for `CC[C@H]1OC(=O)[C@H](C)[C@@H](O[C@H]2C[C@@](C)(OC)[C@](O)(CN3CCN(C)CC3)[C@H](C)O2)[C@H](C)[C@@H](O[C@@H]2O[C@H](C)C[C@H](N(C)S(=O)(=O)c3ccc(Cl)cc3)[C@H]2O)[C@](C)(O)C[C@@H](C)CN[C@H](C)[C@@H](O)[C@]1(C)O` [Example C-7] were 66 µM, 50 µM and 6 µM.
Take `CC[C@H]1OC(=O)[C@H](C)[C@@H](O[C@H]2C[C@@](C)(OC)[C@](O)(Cn3cnnn3)[C@H](C)O2)[C@H](C)[C@@H](O[C@@H]2O[C@H](C)C[C@H](N(C)S(=O)(=O)c3ccc(Cl)cc3)[C@H]2O)[C@](C)(O)C[C@@H](C)CN[C@H](C)[C@@H](O)[C@]1(C)O` [Example C-9]: the IC50 in the assay with TNF-α and with IL-6 was 23 µM throughout. In the assay with IL-1β, this molecule yielded a minimal effective concentration of 8 µM.
As to `CC[C@H]1OC(=O)[C@H](C)[C@@H](O[C@H]2C[C@@](C)(OC)[C@](O)(CN3CCN(CC)CC3)[C@H](C)O2)[C@H](C)[C@@H](O[C@@H]2O[C@H](C)C[C@H](N(C)S(=O)(=O)Nc3ccc(C(F)(F)F)cc3)[C@H]2O)[C@](C)(O)C[C@@H](C)CN[C@H](C)[C@@H](O)[C@]1(C)O` [Example C-12], the IC50 in the assay with TNF-α came out at 13 µM; in the assay with IL-6 it was 140 µM. Further, in the assay with IL-1β, the minimal effective concentration turned out to be 100 µM.
For the molecule `CC[C@H]1OC(=O)[C@H](C)[C@@H](O[C@H]2C[C@@](C)(OC)[C@](O)(CN3CCS(=O)(=O)CC3)[C@H](C)O2)[C@H](C)[C@@H](O[C@@H]2O[C@H](C)C[C@H](N(C)S(=O)(=O)Nc3ccc(C(F)(F)F)cc3)[C@H]2O)[C@](C)(O)C[C@@H](C)CN[C@H](C)[C@@H](O)[C@]1(C)O` [Example C-13], the IC50 in the assay with TNF-α and with IL-6 was over 250 µM throughout. The molecule further came in with a minimal effective concentration in the assay on IL-1β of 6 µM.
On to `CC[C@H]1OC(=O)[C@H](C)[C@@H](O[C@H]2C[C@@](C)(OC)[C@](O)(CN3CCN(C(C)C)CC3)[C@H](C)O2)[C@H](C)[C@@H](O[C@@H]2O[C@H](C)C[C@H](N(C)S(=O)(=O)Nc3ccc(C(F)(F)F)cc3)[C@H]2O)[C@](C)(O)C[C@@H](C)CN[C@H](C)[C@@H](O)[C@]1(C)O` [Example C-14], for which the concentration for half-maximal inhibition (IC50) with TNF-α and in the assay with IL-6 was over 250 µM throughout. The same molecule displayed a minimal effective concentration in the assay with IL-1β of over 250 µM.
Turning to `CC[C@H]1OC(=O)[C@H](C)[C@@H](O[C@H]2C[C@@](C)(OC)[C@](O)(CN3CCN(S(C)(=O)=O)CC3)[C@H](C)O2)[C@H](C)[C@@H](O[C@@H]2O[C@H](C)C[C@H](N(C)S(=O)(=O)Nc3ccc(C(F)(F)F)cc3)[C@H]2O)[C@](C)(O)C[C@@H](C)CN[C@H](C)[C@@H](O)[C@]1(C)O` [Example C-15], the IC50 stood at 10 µM in the assay on TNF-α and 48 µM in the assay with IL-6. In the assay on IL-1β, this molecule yielded a minimal effective concentration of 16 µM.

Broadly, the IC50 is the concentration that inhibits the measured activity by half. Low readings indicate inhibition by little substance, high ones a need for much substance. As a reminder, the minimal effective concentration is the lowest level tested that produced the effect sought.
